# In PMC3119665, “A New Drug Design Targeting the Adenosinergic System for Huntington's Disease” (PLoS ONE, 2011):
# Tests used:
# [1] = system: Bombesin, Non-Selective; assay: Radioligand binding panel (Table S1); design: species or system rat; conditions: 10 μM T1-11, n 2
# [2] = biological target: T1, Dopamine D2L (Homo sapiens, UniProt P14416); assay: Radioligand binding panel (Table S1); conditions: 10 μM T1-11, n 2
# T1 construct: purchased MDS Pharma Services Taiwan
# [3] = biological target: T2, Erythropoietin EPOR (Homo sapiens, UniProt P19235); assay: Radioligand binding panel (Table S1); conditions: 10 μM T1-11, n 2
# T2 construct: purchased MDS Pharma Services Taiwan
# [4] = system: GABAA, Chloride Channel, TBPS; assay: Radioligand binding panel (Table S1); design: species or system rat; conditions: 10 μM T1-11, n 2
# [5] = system: Insulin; assay: Radioligand binding panel (Table S1); design: species or system rat; conditions: 10 μM T1-11, n 2
# [6] = biological target: T3, Melanocortin MC1 (Homo sapiens, UniProt Q01726); assay: Radioligand binding panel (Table S1); conditions: 10 μM T1-11, n 2
# T3 construct: purchased MDS Pharma Services Taiwan
# [7] = system: Muscarinic, Oxotremorine-M; assay: Radioligand binding panel (Table S1); design: species or system rat; conditions: 10 μM T1-11, n 2
# [8] = biological target: T4, Neuromedin U NMU2 (Homo sapiens, UniProt Q9GZQ4); assay: Radioligand binding panel (Table S1); conditions: 10 μM T1-11, n 2
# T4 construct: purchased MDS Pharma Services Taiwan
# [9] = biological target: T5, Neuropeptide Y Y2 (Homo sapiens, UniProt P49146); assay: Radioligand binding panel (Table S1); conditions: 10 μM T1-11, n 2
# T5 construct: purchased MDS Pharma Services Taiwan
# [10] = biological target: T6, Neurotensin NT 1 (Homo sapiens, UniProt P30989); assay: Radioligand binding panel (Table S1); conditions: 10 μM T1-11, n 2
# T6 construct: purchased MDS Pharma Services Taiwan
# [11] = biological target: T7, Nicotinic Acetylcholine α7, Bungarotoxin (Rattus norvegicus, UniProt Q05941); assay: Radioligand binding panel (Table S1)
# T7 construct: purchased MDS Pharma Services Taiwan
# [12] = biological target: T8, Opiate μ (OP3, MOP) (Homo sapiens, UniProt P35372); assay: Radioligand binding panel (Table S1); conditions: 10 μM T1-11, n 2
# T8 construct: purchased MDS Pharma Services Taiwan
# [13] = system: Phosphodiesterase PDE1; assay: Radioligand binding panel (Table S1); design: species or system bovine; conditions: 10 μM T1-11, n 2
# [14] = biological target: T9, Ryanodine RyR3 (Rattus norvegicus, UniProt A0ABK0LPH6); assay: Radioligand binding panel (Table S1); conditions: 10 μM T1-11, n 2
# T9 construct: purchased MDS Pharma Services Taiwan
# [15] = biological target: T10, Serotonin (5-Hydroxytryptamine) 5-HT2C (Homo sapiens, UniProt P28335); assay: Radioligand binding panel (Table S1); conditions: 10 μM T1-11, n 2
# T10 construct: purchased MDS Pharma Services Taiwan
# [16] = biological target: T11, Sigma σ1 (Homo sapiens, UniProt Q99720); assay: Radioligand binding panel (Table S1); conditions: 10 μM T1-11, n 2
# T11 construct: purchased MDS Pharma Services Taiwan
# [17] = system: Sigma, Non-Selective; assay: Radioligand binding panel (Table S1); design: species or system guinea pig; conditions: 10 μM T1-11, n 2
# [18] = biological target: T12, Somatostatin sst1 (Homo sapiens, UniProt P30872); assay: Radioligand binding panel (Table S1); conditions: 10 μM T1-11, n 2
# T12 construct: purchased MDS Pharma Services Taiwan
# [19] = biological target: T13, Somatostatin sst5 (Homo sapiens, UniProt P35346); assay: Radioligand binding panel (Table S1); conditions: 10 μM T1-11, n 2
# T13 construct: purchased MDS Pharma Services Taiwan
# [20] = biological target: T14, Transporter, GABA (Rattus norvegicus, UniProt P23978); assay: Radioligand binding panel (Table S1); conditions: 10 μM T1-11, n 2
# T14 construct: purchased MDS Pharma Services Taiwan
# [21] = biological target: T15, Vasoactive Intestinal Peptide VIP1 (Homo sapiens, UniProt P32241); assay: Radioligand binding panel (Table S1); conditions: 10 μM T1-11, n 2
# T15 construct: purchased MDS Pharma Services Taiwan
# [22] = biological target: T16, Vasopressin V1B (Homo sapiens, UniProt P47901); assay: Radioligand binding panel (Table S1); conditions: 10 μM T1-11, n 2
# T16 construct: purchased MDS Pharma Services Taiwan
# [23] = biological target: T17, A2AR (Rattus norvegicus, UniProt P30543); assay: cAMP assay in PC12 cells; assay type: cell-based
# T17 construct: Treatment of PC12 cells with T1-11 dose-dependently elevated the cellular cAMP levels; endogenous in cells; host or cells: PC12
# Procedure: PC12 cells were plated at the density of 5×10^5 cells/well (on 12-well plates) and incubated with the indicated reagent(s) for the desired period of time. Cells were washed twice with ice-cold Locke's solution (150 mM NaCl, 5.6 mM KCl, 5 mM glucose, 1 mM MgCl2, and 10 mM HEPES, adjusted to pH 7.4). Cellular cAMP was extracted by adding 0.3 ml of 0.1 M HCl to each well and incubating this for 10 min on ice.
# [24] = biological target: T18, adenosine transporter (ENT1) (Rattus norvegicus, UniProt O54698); assay: Adenosine uptake by PC12 cells; assay type: cell-based
# T18 construct: endogenous in cells; host or cells: PC12
# Procedure: For adenosine uptake of PC12, cells were seeded approximately 16 h before each uptake assay at ∼2×10^5 cells per well in 24-well plates coated with poly-L-lysine. To perform adenosine uptake assays, cells were washed with Krebs Ringer-Henseleit buffer [125 mM NaCl, 4.8 mM KCl, 1.3 mM CaCl2, 1.2 mM MgSO4, 1.2 mM KH2PO4, 5.6 mM glucose, 10 µM pargyline, and 10 mM HEPES (pH 7.2)] and incubated in the same buffer for 10 min at 37°C in the presence or absence of the indicated reagent(s). Adenosine uptake was initiated by adding [^3H]adenosine at the indicated concentration (0.5 µCi/mmol) at 37°C. At the end of the incubation, cells were placed on ice, washed twice with ice-cold Krebs Ringer-Henseleit buffer to remove free [^3H]adenosine, lysed with 1% Triton X-100, and added to scintillation vials to count the radioactivity. Non-specific uptake was determined as the uptake performed in the presence of 100 µM adenosine, and was subtracted from the total adenosine uptake.
# [25] = system: R6/2 mice; assay: Survival of R6/2 mice; assay type: in vivo; conditions: 0.05 mg/ml in drinking water, n = 11
# Description: Male R6/2 mice and littermate controls were originally obtained from Jackson Laboratories (Bar Harbor, ME, USA), and mated to female control mice (B6CBAFI/J). Offspring were identified by a polymerase chain reaction (PCR) genotyping technique of genomic DNA extracted from tail tissues using primers located in the transgene (5′-[…]-3′ and 5′-[…]- AGGAG-3′) to ensure that the number of CAG repeats remained approximately 150. In total, 211 R6/2 transgenic mice were used in this study. Animals were housed at the Institute of Biomedical Sciences Animal Care Facility under a 12-h light/dark cycle. Body weights of mice were recorded once daily. Animal experiments were performed under protocols approved by the Academia Sinica Institutional Animal Care and Utilization Committee, Taipei, Taiwan.
# Supplementary file pone.0020934.s005.tif: Figure S5 Effect of T1-11 on the shorten lifespan and enlarged ventricle of R6/2 mice. Animals were given the vehicle (1% DMSO; CON) or T1-11 (0.05 mg/ml)-containing drinking water from the age of 7 weeks. (A) Survival was assessed. Specific comparison to R6/2 mice treated with the vehicle (p = 0.306; Mantel-Cox test). (B) Five weeks after T1-11 treatment, 3D-lMRI was performed to determine the ventricle-to-brain ratio of the indicated animals as described. * p<0.05. (TIF) Click here for additional data file.
# T17 sequence (P30543 whole entry): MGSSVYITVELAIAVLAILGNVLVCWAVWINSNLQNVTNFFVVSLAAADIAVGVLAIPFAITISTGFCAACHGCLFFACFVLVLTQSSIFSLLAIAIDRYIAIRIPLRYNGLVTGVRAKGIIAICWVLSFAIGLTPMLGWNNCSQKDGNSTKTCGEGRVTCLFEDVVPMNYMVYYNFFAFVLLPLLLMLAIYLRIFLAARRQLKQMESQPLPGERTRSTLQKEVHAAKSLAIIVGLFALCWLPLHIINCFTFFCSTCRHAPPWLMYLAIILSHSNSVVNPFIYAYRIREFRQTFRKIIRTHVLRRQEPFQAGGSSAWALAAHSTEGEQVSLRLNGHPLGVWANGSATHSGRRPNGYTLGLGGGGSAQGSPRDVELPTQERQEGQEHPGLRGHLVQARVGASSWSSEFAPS
# T18 sequence (O54698 whole entry): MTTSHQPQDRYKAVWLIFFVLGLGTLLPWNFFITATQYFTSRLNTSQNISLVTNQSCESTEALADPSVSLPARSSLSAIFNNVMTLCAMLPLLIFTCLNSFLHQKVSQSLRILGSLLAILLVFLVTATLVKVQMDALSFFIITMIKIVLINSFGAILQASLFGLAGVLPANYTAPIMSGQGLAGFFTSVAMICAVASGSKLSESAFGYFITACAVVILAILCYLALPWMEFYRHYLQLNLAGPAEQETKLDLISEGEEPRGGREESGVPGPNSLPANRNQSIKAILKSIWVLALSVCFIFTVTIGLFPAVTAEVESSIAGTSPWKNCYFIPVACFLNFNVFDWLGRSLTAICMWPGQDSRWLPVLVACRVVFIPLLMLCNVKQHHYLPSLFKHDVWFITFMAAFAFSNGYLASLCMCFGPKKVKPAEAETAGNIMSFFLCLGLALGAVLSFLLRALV
# T12 sequence (P30872 whole entry): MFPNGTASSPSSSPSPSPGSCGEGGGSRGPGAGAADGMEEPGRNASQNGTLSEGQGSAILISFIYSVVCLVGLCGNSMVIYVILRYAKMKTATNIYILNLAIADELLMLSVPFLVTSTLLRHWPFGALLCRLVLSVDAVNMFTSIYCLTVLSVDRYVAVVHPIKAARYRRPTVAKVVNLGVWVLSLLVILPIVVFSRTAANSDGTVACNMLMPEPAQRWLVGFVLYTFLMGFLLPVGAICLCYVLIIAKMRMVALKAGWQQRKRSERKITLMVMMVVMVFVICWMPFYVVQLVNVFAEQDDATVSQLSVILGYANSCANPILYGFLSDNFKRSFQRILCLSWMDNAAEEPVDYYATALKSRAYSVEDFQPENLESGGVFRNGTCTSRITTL
# T8 sequence (P35372 whole entry): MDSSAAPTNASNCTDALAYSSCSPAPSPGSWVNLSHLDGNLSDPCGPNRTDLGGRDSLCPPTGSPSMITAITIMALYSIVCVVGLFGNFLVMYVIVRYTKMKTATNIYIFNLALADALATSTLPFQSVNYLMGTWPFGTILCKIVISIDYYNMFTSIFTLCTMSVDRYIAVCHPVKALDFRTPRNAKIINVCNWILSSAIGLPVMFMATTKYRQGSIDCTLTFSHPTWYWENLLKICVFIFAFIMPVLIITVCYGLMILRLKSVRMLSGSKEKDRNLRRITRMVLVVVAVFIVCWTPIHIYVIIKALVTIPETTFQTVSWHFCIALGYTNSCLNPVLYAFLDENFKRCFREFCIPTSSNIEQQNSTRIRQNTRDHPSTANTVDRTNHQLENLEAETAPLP
# T2 sequence (P19235 25-508): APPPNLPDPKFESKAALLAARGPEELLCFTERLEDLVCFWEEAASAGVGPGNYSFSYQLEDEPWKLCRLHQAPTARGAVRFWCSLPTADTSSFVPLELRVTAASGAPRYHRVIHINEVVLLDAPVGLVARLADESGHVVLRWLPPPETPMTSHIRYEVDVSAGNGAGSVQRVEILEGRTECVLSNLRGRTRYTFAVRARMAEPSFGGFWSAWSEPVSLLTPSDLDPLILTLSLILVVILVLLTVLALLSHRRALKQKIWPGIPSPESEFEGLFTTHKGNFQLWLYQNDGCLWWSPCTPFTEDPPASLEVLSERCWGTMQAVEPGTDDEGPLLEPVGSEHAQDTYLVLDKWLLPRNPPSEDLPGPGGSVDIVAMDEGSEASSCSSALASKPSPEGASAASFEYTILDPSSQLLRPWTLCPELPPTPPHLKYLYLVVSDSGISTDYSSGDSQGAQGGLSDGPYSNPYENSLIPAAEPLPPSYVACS
# T5 sequence (P49146 whole entry): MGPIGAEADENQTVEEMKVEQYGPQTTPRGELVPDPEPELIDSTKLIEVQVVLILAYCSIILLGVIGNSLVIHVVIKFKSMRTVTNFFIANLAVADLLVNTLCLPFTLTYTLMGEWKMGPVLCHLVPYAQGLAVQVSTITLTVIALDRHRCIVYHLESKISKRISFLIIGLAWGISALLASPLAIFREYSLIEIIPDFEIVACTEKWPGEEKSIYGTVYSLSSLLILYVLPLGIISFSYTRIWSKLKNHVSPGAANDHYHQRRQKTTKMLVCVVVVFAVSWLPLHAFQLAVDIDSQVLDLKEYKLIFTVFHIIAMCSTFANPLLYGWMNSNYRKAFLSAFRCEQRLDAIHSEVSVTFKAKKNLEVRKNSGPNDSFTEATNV
# T4 sequence (Q9GZQ4 whole entry): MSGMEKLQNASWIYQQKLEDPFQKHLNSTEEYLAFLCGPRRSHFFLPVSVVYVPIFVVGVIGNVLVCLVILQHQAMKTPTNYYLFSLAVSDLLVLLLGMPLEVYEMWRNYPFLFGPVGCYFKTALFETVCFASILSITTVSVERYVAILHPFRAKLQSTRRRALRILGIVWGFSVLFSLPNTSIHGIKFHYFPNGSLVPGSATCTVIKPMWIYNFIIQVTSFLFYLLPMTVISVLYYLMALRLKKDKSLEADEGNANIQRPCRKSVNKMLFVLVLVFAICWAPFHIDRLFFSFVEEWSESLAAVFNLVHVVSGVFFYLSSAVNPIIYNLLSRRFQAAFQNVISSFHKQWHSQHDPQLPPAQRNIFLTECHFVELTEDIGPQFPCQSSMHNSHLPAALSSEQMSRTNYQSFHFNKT
# T15 sequence (P32241 31-457): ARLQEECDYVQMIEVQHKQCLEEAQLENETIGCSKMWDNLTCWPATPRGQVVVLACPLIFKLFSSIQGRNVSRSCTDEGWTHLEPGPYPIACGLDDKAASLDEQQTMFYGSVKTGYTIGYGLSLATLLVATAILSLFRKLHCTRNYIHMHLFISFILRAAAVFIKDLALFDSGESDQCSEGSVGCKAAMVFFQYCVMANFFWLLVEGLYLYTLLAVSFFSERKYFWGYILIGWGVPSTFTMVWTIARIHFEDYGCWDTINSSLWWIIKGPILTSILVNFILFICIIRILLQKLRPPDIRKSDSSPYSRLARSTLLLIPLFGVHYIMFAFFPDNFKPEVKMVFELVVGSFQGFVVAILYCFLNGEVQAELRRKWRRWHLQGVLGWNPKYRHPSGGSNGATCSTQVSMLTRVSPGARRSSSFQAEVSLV
# T16 sequence (P47901 whole entry): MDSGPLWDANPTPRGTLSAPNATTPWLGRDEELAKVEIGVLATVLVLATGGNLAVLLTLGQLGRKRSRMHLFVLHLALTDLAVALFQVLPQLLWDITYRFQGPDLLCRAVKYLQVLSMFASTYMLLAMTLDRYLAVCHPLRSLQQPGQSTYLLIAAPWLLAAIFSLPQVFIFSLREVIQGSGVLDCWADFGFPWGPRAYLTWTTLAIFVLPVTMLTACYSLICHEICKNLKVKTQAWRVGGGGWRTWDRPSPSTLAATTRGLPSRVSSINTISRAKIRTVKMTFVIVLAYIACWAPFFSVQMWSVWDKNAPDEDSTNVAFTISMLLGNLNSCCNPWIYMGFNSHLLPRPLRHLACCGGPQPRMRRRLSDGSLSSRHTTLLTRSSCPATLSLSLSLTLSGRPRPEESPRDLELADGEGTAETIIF
# T10 sequence (P28335 33-458): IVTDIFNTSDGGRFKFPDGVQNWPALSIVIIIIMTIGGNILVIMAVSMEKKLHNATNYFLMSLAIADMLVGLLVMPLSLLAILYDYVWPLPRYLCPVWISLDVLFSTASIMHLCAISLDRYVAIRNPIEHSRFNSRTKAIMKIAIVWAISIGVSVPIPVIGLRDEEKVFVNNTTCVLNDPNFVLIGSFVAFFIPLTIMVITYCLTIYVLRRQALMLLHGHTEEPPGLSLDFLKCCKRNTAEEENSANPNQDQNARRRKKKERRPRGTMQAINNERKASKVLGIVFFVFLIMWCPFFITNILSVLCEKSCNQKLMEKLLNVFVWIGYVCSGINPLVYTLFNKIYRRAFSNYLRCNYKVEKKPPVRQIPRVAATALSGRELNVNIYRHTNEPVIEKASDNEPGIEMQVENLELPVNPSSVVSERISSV
# T3 sequence (Q01726 whole entry): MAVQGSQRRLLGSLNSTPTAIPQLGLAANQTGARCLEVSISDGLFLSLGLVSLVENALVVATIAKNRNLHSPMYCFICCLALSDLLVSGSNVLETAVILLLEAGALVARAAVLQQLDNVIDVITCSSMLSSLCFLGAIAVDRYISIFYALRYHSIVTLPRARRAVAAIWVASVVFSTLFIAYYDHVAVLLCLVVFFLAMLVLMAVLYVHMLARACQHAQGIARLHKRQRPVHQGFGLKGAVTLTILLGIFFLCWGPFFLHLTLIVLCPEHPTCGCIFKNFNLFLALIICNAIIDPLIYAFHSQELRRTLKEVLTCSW
# T13 sequence (P35346 whole entry): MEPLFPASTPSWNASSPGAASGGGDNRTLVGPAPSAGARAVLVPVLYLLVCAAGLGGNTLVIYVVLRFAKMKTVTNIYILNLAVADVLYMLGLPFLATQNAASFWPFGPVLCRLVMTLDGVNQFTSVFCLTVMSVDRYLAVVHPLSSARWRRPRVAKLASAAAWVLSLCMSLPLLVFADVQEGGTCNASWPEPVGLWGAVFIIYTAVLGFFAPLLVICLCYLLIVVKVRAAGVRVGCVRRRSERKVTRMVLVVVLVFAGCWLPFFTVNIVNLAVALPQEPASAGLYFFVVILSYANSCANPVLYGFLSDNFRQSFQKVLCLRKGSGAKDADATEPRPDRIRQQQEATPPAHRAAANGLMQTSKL
compound,measurement,setting,value
"OC[C@H]1O[C@@H](n2cnc3c(NCc4ccc(O)cc4)ncnc32)[C@H](O)[C@@H]1O [T1-11, N ^6-(4-hydroxybenzyl)adenine riboside]",% Inhibition,[1],6%
same,inhibition at 10 µM,[2],13%
same,inhibition at 10 µM,[3],3%
same,% Inhibition,[4],6%
same,% Inhibition,[5],4%
same,inhibition at 10 µM,[6],3%
same,% Inhibition,[7],-7%
same,inhibition at 10 µM,[8],5%
same,inhibition at 10 µM,[9],4%
same,inhibition at 10 µM,[10],11%
same,inhibition at 10 µM,[11],-1%
same,inhibition at 10 µM,[12],5%
same,% Inhibition,[13],26%
same,inhibition at 10 µM,[14],-1%
same,inhibition at 10 µM,[15],27%
same,inhibition at 10 µM,[16],7%
same,% Inhibition,[17],-3%
same,inhibition at 10 µM,[18],-3%
same,inhibition at 10 µM,[19],4%
same,inhibition at 10 µM,[20],8%
same,inhibition at 10 µM,[21],2%
same,inhibition at 10 µM,[22],-18%
same,Function,"[23]; A2A adenosine receptor, elevates cellular cAMP levels",agonist
same,EC50,"[23]; PC12 cells, 20 min at RT, read-out: EC50, elevation of cellular cAMP levels",~2200 nM
same,Function,"[24]; Adenosine transporter (ENT1), suppressed the uptake of adenosine",inhibitor
same,Inhibition of adenosine uptake,[24]; PC12 cells,inhibited adenosine uptake by PC12 cells in a dose-dependent manner
same,Mean survival time,[25],103.3 ± 3.9 days
